Laboratory results reported in patent US20140328918A1, “METHODS OF TREATING A SUBJECT AND RELATED PARTICLES, POLYMERS AND COMPOSITIONS” (CERULEAN PHARMA INC., priority 2010, published 2014).
Several values for one entry are separate records, joined by “and”; a condition that tells them apart may be missing. Equal entries are not always repeated. Where two headings read alike, the source gives them in different places.

Legend:
[1] = system: ADR-RES cells; assay: Efficacy in docetaxel resistant model ADR-RES (Example 85); format: in vivo, female nu/nu mice
Procedure: ADR-RES cells were grown in culture to 85-90% confluency in RPMI medium supplemented with 10% fetal bovine serum (FBS), 1% glutamine and 1% penicillin/streptomycin.
(§1) The treatments were administered IV into the tail vein at a dose volume of 10 and 20 mL/kg for 30 and 60 mg/kg respectively, beginning on post-implantation day 47, when the mean tumor volume was ca. 150 mm^3 Body weight and tumor volume were measured for three times a week during the dosing period and twice a week thereafter. In addition, animals were also monitored for any morbidity and adverse effects for three times a week during the dosing period and twice a week thereafter.
Tumor volume was calculated with (width×width×length)/2 mm^3 formula. Efficacy was determined by tumor growth inhibition (TGI), tumor growth delay (TGD) and survival. Tumor growth inhibition (TGI) is represented as % and calculated as (1−(treated tumor volume/control tumor volume))×100 when the control group mean tumor volume reached ≧1000 mm^3 Tumor growth delay (TGD) is calculated by subtracting the day when the vehicle treated group reached the maximum tumor size 1000 mm^3 from the day when the treatment group tumor size reached 1000 mm^3.

[2] = Body weight and ataxia in MDA-MB-435 tumor-bearing mice (Example 82); format: in vivo, female CD-1 nude mice; conditions: for body weight loss: weekly×two injections
Procedure: The treatments were administered IV into the tail vein at the dose volumes stated above, beginning on post-implantation Day 21, when the mean tumor volume was 150 mm^3 or, for one group, on Day 37, when the mean tumor volume for that group was 433 mm^3.

[3] = system: B16.F10 cells; assay: Efficacy of docetaxel-2′-5050 PLGA-O-acetyl nanoparticles in mouse melanoma model B16.F10 (Example 84); format: in vivo, male C57BL/6 mice; conditions: 30 mg/kg, 1/wk×3
Procedure: B16.F10 cells were grown in culture to 85-90% confluency in MEM-alpha medium supplemented with 10% fetal bovine serum (FBS) and 1% penicillin/streptomycin. Cells were removed from the culture flask using 0.05% trypsin (passage=4), re-suspended in PBS (density=10×10^6 cells/mL) and were implanted subcutaneously (1×10^6 cells in 100 μL MEM-alpha medium/mouse) into the right flank of male C57BL/6 mice on day 1.
(§2) The treatments were administered IV into the tail vein at a dose volume of 10 and 15 ml/kg for a corresponding dose of 30 mg/kg and 45 mg/kg respectively, beginning on post-implantation day 5, when the mean tumor volume was ca. 60 mm^3 Body weight and tumor volume were measured three times a week. In addition, animals were also monitored for any morbidity and adverse effects three times a week.
Tumor volume was calculated with (width×width×length)/2 mm^3 formula. Efficacy was determined by tumor growth inhibition (TGI), tumor growth delay (TGD) and survival. Tumor growth inhibition (TGI) is represented as % and calculated as (1−(treated tumor volume/control tumor volume))×100 when the control group mean tumor volume reached ≧3000 mm^3. Tumor growth delay (TGD) is calculated by subtracting the day when the vehicle treated group reached the maximum tumor size 3000 mm^3 from the day when the treatment group tumor size reached 3000 mm^3. […]

[4] = Tolerability in H1299 model (Example 86); format: in vivo, male nu/nu mice
Procedure: (§3) The treatments were administered IV into the tail vein at a dose volume of 10 and 20 mL/kg for 30 and 60 mg/kg respectively, beginning on post-implantation day 30 when the mean tumor volume was ca. 170 mm^3 (small tumor group), and on day 37 when the mean tumor volume was ca. 440 mm^3 (large tumor group). Body weight and tumor volume were measured for three times a week during the dosing period and twice a week thereafter. In addition, animals were also monitored for any morbidity and adverse effects for three times a week during the dosing period and twice a week thereafter.
(§4) Tumor volume was calculated with (width×width×length)/2 mm^3 formula. Efficacy was determined by tumor growth inhibition (TGI), tumor growth delay (TGD) and survival. Tumor growth inhibition (TGI) is represented as % and calculated as (1−(treated tumor volume/control tumor volume))×100 when the control group mean tumor volume reached ≧1000 mm^3. Tumor growth delay (TGD) is calculated by subtracting the day when the vehicle treated group reached the maximum tumor size 1000 mm^3 from the day when the treatment group tumor size reached 1000 mm^3.

[5] = system: B16.F10 cells; assay: Efficacy of docetaxel-2′-alanine-glycolate and -2′-glycine-5050 PLGA-O-acetyl nanoparticles in mouse melanoma model B16.F10 (Example 87); format: in vivo, male C57BL/6 mice; conditions: 1/wk×3
Procedure: B16.F10 cells were grown in culture to 85-90% confluency in MEM-alpha medium supplemented with fetal bovine serum (FBS) and 1% penicillin/streptomycin. Cells were removed from the flask using 0.05% trypsin (passage=4), re-suspended in PBS (density=10×10^6 cells/mL) and were implanted subcutaneously (1×10^6 cells in 100 μL PBS/mouse) into the right flank of male C57BL/6 mice on day 1.
(§5) The treatments were administered IV into the tail vein at a dose volume of 10 ml/kg, beginning on post-implantation day 5, when the mean tumor volume was ca. 60 mm^3. Animals were monitored for any morbidity and adverse effects three times a week. In addition, body weight and tumor volume were also measured three times a week.
Tumor volume was calculated with (width×width×length)/2 mm^3 formula. Efficacy was determined by tumor growth inhibition (TGI), tumor growth delay (TGD) and survival. Tumor growth inhibition (TGI) is represented as % and calculated as (1−(treated tumor volume/control tumor volume))×100 when the control group mean tumor volume reached ≧3000 mm^3. Tumor growth delay (TGD) is calculated by subtracting the day when the vehicle treated group reached the maximum tumor size 3000 mm^3 from the day when the treatment group tumor size reached 3000 mm^3. The criterion at which a mouse was removed from the study was tumor volume≧3000 mm^3

[6] = Tolerability in mouse melanoma model B16.F10 (Example 84); format: in vivo, male C57BL/6 mice; conditions: 30 mg/kg, 1/wk×3
Procedure: as §2

[7] = Tolerability in ADR-RES model (Example 85); format: in vivo, female nu/nu mice
Procedure: as §1

[8] = Tolerability in normal non-tumor-bearing mice: body weight, CBC, serum chemistry, ataxia, sciatic nerve histopathology (Example 83); format: in vivo, male C57BL/6 mice
Procedure: Treatments were administered intravenously on a q7d×2 schedule, i.e., two treatments seven days apart (the first treatment was on Day one). The study ended on Day 14, six days after the 2nd treatment. Blood was collected for complete blood count (CBC) and serum chemistry. Leg muscles were collected so that nerve degeneration could be assessed from the sciatic nerve.

[9] = Tolerability in mouse melanoma model B16.F10 (Example 87); format: in vivo, male C57BL/6 mice; conditions: 1/wk×3
Procedure: as §5

[10] = system: H1299 cells; assay: Efficacy in non-small cell lung carcinoma model H1299 (Example 86); format: in vivo, male nu/nu mice; conditions: 30 mg/kg
Procedure: H1299 cells were grown in culture to 85-90% confluency in RPMI medium supplemented with 10% fetal bovine serum (FBS), 1% glutamine and 1% penicillin/streptomycin. Cells were removed from the culture flask using 0.05% trypsin (passage=4), re-suspended in RPMI medium (density=50×10^6 cells/mL) and were implanted subcutaneously (5×10^6 cells in 100 μL RPMI medium/mouse) into the mammary fat pad area of male nu/nu mice on day 1.
as §3, §4

[11] = Lyophilization and reconstitution of PEGylated nanoparticles: appearance and particle size (Zetasizer); format: physicochemical; conditions: PLGA7K-PVA-PEG2K-30 and PLGA7K-PVA-PEG5K-30 PEGylated nanoparticle formulations, lyoprotectant/nanoparticle weight ratio 1:1
Excerpt: Nanoparticles comprising therapeutic agents were lyophilized using three different techniques. The first technique was a simple freeze drying technique where the liquid formulations were frozen with liquid nitrogen followed by drying under vacuum overnight at room temperature. During this simple lyophilization technique a Labconco® freeze dryer (available from Labconco Corp. of Kansas City, Mo.) was used. […] Instead of conventional multi-step ramping and holding, one step slow ramping was used in this approach.
Both the rapid cycle and conventional cycle lyophilization reactions were performed using a VirTis advantage freeze dryer.
A lyoprotectant screen was performed as follows. The critical point for design of a lyophilization cycle was to keep the temperature below the glass transition temperature (Tg′) of the lyoprotectant during the primary drying stage.
In this example, a new strategy of using cyclodextrins and their derivatives as a cryoprotectant was tested.
PEGylated nanoparticle formulations were analyzed for nanoparticle size prior to lyophilization, and lyophilized preparations that were completely resuspended by hand shaking were analyzed for nanoparticle size with a Zetasizer particle sizer. […] Prior to lyophilization, lyoprotectants and non-cyclic carbohydrates were added to PEGylated nanoparticle formulations at different weight ratios.

[12] = Stability of 1H NMR sample stored at ambient temperature; format: physicochemical; conditions: 4 days
Procedure: Docetaxel-2′-aminoethyldithioethyl carbonate.DCA [2.77 g] was dissolved in DCM (100 mL) to produce a clear solution. It was washed with saturated NaHCO3 (2×40 mL). The organic layer was separated, dried over sodium sulfate and filtered. The filtrate was concentrated to ˜10 mL, to which heptanes (100 mL) was slowly added resulting in a suspension. It was stirred for 0.5 h and filtered (30 mL heptanes wash). The filter cake was vacuum-dried at ambient temperature for 16 h to afford the free base of CPX1231 [2.17 g, yield: 88%].

[13] = system: B16.F10 cells; assay: Efficacy of PEGylated docetaxel-5050 PLGA-O-acetyl nanoparticles (2k/5k mPEG-PLGA), B16.F10 murine melanoma (Example 79); format: in vivo, male C57BL/6 mice; conditions: q7dx3, 30 mg/kg
Procedure: Refer to table for detailed description of formulations.
Tumor volume was calculated with the following equation: (width×width×length)/2 mm^3.

[14] = mouse, in vivo
Procedure: The stock solution was diluted further with PBS to 0.6, 1.5, 3, 4.5 and 6 mg/mL (for a corresponding dose of 6, 15, 30, 45 and 60 mg/kg) so that all the groups received the same amount of ethanol, polysorbate 80, water and PBS. […] 5) PEGylated O-acetyl-5050-PLGA nanoparticle vehicle at the highest concentration of 6 mg/mL.
The treatments were administered IV into the tail vein at a dose volume of 10 mL/kg, beginning on post-implantation Day 5, when the mean tumor volume was 55 mm^3. The treatments were administered 4 times, on Days 5, 8, 12 and 15 (biweekly×4 injections). On Day 17 post-tumor implantation, mice were euthanized by CO2 inhalation according to the procedure guideline. Blood was collected by cardiac puncture and put into ethylenediaminetetraacetic acid (EDTA) or serum separation blood collection tubes. Whole blood was analyzed on the day of collection for CBC analyses. After the blood clotted and was centrifuged, serum was frozen immediately on dry ice for serum chemistry analyses.
Tolerability was determined by changes in body weight, expressed as a percent of the initial body weight on post-implantation Day 5. […] Other indices of toxicity, complete blood count (CBC) and serum chemistry were determined from blood collected from animals that were euthanized on Day 17 by CO2 inhalation, according to the procedure guideline.

[15] = Body weight changes in A2780 tumor-bearing mice (Example 78); format: in vivo, female CD-1 nude mice; conditions: Day 36
Procedure: The stock solution was diluted further with PBS to 1.5 mg/mL (for a dose of 15 mg/kg at 10 mL/kg and 30 mg/kg at 20 mL/kg). This formulation was made within 30 minutes of administration to mice.
The treatments were administered 2 times, on Day 8 and Day 15 (weekly×2 injections) for n=8 mice per group. […] On Day 50, the study was ended for all remaining mice. When removed from the study, mice were euthanized by CO2 inhalation.

[16] = Body weight and ataxia in SK-OV-3 tumor-bearing mice (Example 81); format: in vivo, female CD-1 nude mice; conditions: 60 mg/kg, weekly×two injections
[17] = system: B 16.F10 cells; assay: CellTiter-Glo cytotoxicity of nanoparticles formed from CDP-linker-docetaxel compounds (Example 131); format: cell-based, mouse; conditions: CellTiter-Glo, 24, 48 and 72 hours of incubation
Procedure: To measure the cytotoxic effect of CDP-linker-docetaxel compounds, the CellTiter-Glo Luminescent Cell Viability Assay (CTG) was used. […] B 16.F10 cells, grown to 85-90% confluency in 150 cm2 flasks (passage<30), were resuspended in media (MEM-alpha, 10% HI-FBS, 1× antibiotic-antimycotic solution) and added to 96-well opaque-clear bottom plates at a concentration of 1500 cells/well in 200 μL/well. The cells were incubated at 37° C. with 5% CO2 for 24 hours. The following day, serial dilutions of 2× concentrated particles and 2× concentrated free drug were made in 12-well reservoirs with media to specified concentrations. The media in the plates was replaced with 100 μL of fresh media and 100 μL of the corresponding serially diluted drug. Three sets of plates were prepared with duplicate treatments. Following 24, 48 and 72 hours of incubation at 37° C. with 5% CO2, the media in the plates was replaced with 100 μL of fresh media and 100 μL of CTG solution, and then incubated for 5 minutes on a plate shaker at room temperature set to 450 rpm and allowed to rest for 15 minutes. Viable cells were measured by luminescence using a microtiter plate reader. The data was plotted as % viability vs. concentration and standardized to untreated cells.

[18] = Particle properties (Zavg, PDI, Dv50, Dv90) by dynamic light scattering; format: physicochemical; conditions: polymer conjugate
Excerpt: Particle solution properties were characterized by dynamic light scattering (DLS) spectrometer.

Molecule: CC(=O)O[C@@]12CO[C@@H]1C[C@H](O)[C@@]1(C)C(=O)[C@H](O)C3=C(C)[C@@H](OC(=O)[C@H](O)[C@@H](NC(=O)OC(C)(C)C)c4ccccc4)C[C@@](O)([C@@H](OC(=O)c4ccccc4)[C@H]21)C3(C)C [Free docetaxel, docetaxel]
- survival on day 102 ([1]; 30 mg/kg, 1/biwk×3): 50%
- survival on day 106 ([1]; 30 mg/kg, 1/wk×2): 50%
- day mean tumor volume endpoint (≧1000 mm^3) reached ([1]; 60 mg/kg, 1/wk×2): 106 days
- survival on day 106 ([1]; 60 mg/kg, 1/wk×2): 50%
- Ataxia ([2]; 60 mg/kg): Ataxia was observed four days after the second treatment
- survival on day 40 [3]: 50%
- survival on day 45 [3]: 0%
- Maximum body weight loss (%) ([4]; 30 mg/kg, 1/wk×2, large tumor group): 19%
- Maximum body weight loss (%) ([4]; 30 mg/kg, 1/wk×2, small tumor group): 18%
- body weight loss / hind limb paralysis ([4]; 30 mg/kg, large tumor group): did not cause any significant body weight loss or hind limb paralysis
- body weight loss / hind limb paralysis ([4]; 30 mg/kg, small tumor group): did not cause any significant body weight loss or hind limb paralysis
- body weight loss / hind limb paralysis ([4]; 60 mg/kg, large tumor group): significant body weight loss and severe hind limb paralysis following the second injection
- body weight loss / hind limb paralysis ([4]; 60 mg/kg, small tumor group): significant body weight loss and severe hind limb paralysis following the second injection
- survival on day 29 ([5]; 15 mg/kg): 50%
- survival on day 43 ([5]; 15 mg/kg): 0%
- survival on day 36 ([5]; 30 mg/kg): 50%
- survival on day 40 ([5]; 30 mg/kg): 50%
- survival on day 43 ([5]; 30 mg/kg): 0%
- survival on day 45 ([5]; 30 mg/kg): 0%
- Maximum body weight loss (%) [6]: 12%
- Maximum body weight loss (%) ([7]; 30 mg/kg, 1/biwk×3): 9%
- body weight loss / hind limb paralysis ([7]; 30 mg/kg, 1/biwk×3): did not cause any significant body weight loss (<10%) or hind limb paralysis
- Maximum body weight loss (%) ([7]; 30 mg/kg, 1/wk×2): 6%
- body weight loss / hind limb paralysis ([7]; 30 mg/kg, 1/wk×2): did not cause any significant body weight loss (<10%) or hind limb paralysis
- Maximum body weight loss (%) ([7]; 60 mg/kg, 1/biwk×3): 21%
- body weight loss / hind limb paralysis ([7]; 60 mg/kg, 1/biwk×3): severe hind limb paralysis following the third injection
- Maximum body weight loss (%) ([7]; 60 mg/kg, 1/wk×2): 23%
- body weight loss / hind limb paralysis ([7]; 60 mg/kg, 1/wk×2): hind limb paralysis after the 2nd injection followed by recovery
- serum chemistry parameters ([8]; q7d×2): did not affect any serum chemistry parameter at doses up to 60 mg/kg
- Maximum body weight loss (%) ([9]; 15 mg/kg): 2%
- Maximum body weight loss (%) ([9]; 30 mg/kg): 12% and 14%
- survival on day 61 ([10]; large tumor group): 50%
- survival on day 80 ([10]; large tumor group): 0%
- survival on day 56 ([10]; small tumor group): 50%
- survival on day 68 ([10]; small tumor group): 0%

Molecule: OC[C@@H](O)[C@@H](O)[C@H](O)[C@H](O)CO [Mannitol, mannitol]
- maintenance of particle size after simple lyophilization [11]: None of mannitol, sucrose and trehalose worked at the same ratio

Molecule: OC[C@H]1O[C@@](CO)(O[C@H]2O[C@H](CO)[C@@H](O)[C@H](O)[C@H]2O)[C@@H](O)[C@@H]1O [Sucrose, sucrose]
- maintenance of particle size after simple lyophilization [11]: None of mannitol, sucrose and trehalose worked at the same ratio

Molecule: OC[C@H]1O[C@H](O[C@H]2O[C@H](CO)[C@@H](O)[C@H](O)[C@H]2O)[C@H](O)[C@@H](O)[C@@H]1O [Trehalose, trehalose]
- maintenance of particle size after simple lyophilization [11]: None of mannitol, sucrose and trehalose worked at the same ratio

Molecule: CC(=O)O[C@@]12CO[C@@H]1C[C@H](O)[C@@]1(C)C(=O)[C@H](O)C3=C(C)[C@@H](OC(=O)[C@H](OC(=O)OCCSSCCN)[C@@H](NC(=O)OC(C)(C)C)c4ccccc4)C[C@@](O)([C@@H](OC(=O)c4ccccc4)[C@H]21)C3(C)C [docetaxel-2′-aminoethyldithioethyl carbonate]
- degradation of 1H NMR sample [12]: no indication of degradation

Molecule: CC(=O)O[C@@]12CO[C@@H]1C[C@H](O)[C@@]1(C)C(=O)[C@H](O)C3=C(C)[C@@H](OC(=O)[C@H](O)[C@@H](NC(=O)OC(C)(C)C)c4ccccc4)C[C@@](O)([C@@H](OC(=O)c4ccccc4)[C@H]21)C3(C)C [docetaxel]
- body weight loss ([2]; 15 mg/kg): 10%
- body weight loss ([2]; 30 mg/kg): 14%
- day average tumor volume reached the end point of 3000 mm^3 [13]: 37 days
- body weight above the initial on Day 14 ([8]; 30 mg/kg q7d×2): 3%
- body weight above the initial on Day 14 ([8]; 45 mg/kg q7d×2): 2%
- weight gained at the second treatment ([8]; 30 and 45 mg/kg q7d×2): up to 7%
- serum chemistry parameters [14]: did not affect any serum chemistry parameter at doses up to 30 mg/kg
- % of the initial body weight ([15]; 15 mg/kg): 113±11%
- % of the initial body weight ([15]; 30 mg/kg): 105±9%
- Ataxia [16]: observed in all the mice four days after the second treatment

Molecule: OC[C@H]1O[C@@H]2O[C@H]3[C@H](O)[C@@H](O)[C@@H](O[C@H]4[C@H](O)[C@@H](O)[C@@H](O[C@H]5[C@H](O)[C@@H](O)[C@@H](O[C@H]6[C@H](O)[C@@H](O)[C@@H](O[C@H]7[C@H](O)[C@@H](O)[C@@H](O[C@H]1[C@H](O)[C@H]2O)O[C@@H]7CO)O[C@@H]6CO)O[C@@H]5CO)O[C@@H]4CO)O[C@@H]3CO [α-CD, α cyclodextrin]
- maintenance of particle size after simple lyophilization [11]: also worked at the same weight ratio

Molecule: OC[C@H]1O[C@@H]2O[C@H]3[C@H](O)[C@@H](O)[C@@H](O[C@H]4[C@H](O)[C@@H](O)[C@@H](O[C@H]5[C@H](O)[C@@H](O)[C@@H](O[C@H]6[C@H](O)[C@@H](O)[C@@H](O[C@H]7[C@H](O)[C@@H](O)[C@@H](O[C@H]8[C@H](O)[C@@H](O)[C@@H](O[C@H]9[C@H](O)[C@@H](O)[C@@H](O[C@H]1[C@H](O)[C@H]2O)O[C@@H]9CO)O[C@@H]8CO)O[C@@H]7CO)O[C@@H]6CO)O[C@@H]5CO)O[C@@H]4CO)O[C@@H]3CO [γ-CD, γ cyclodextrin]
- maintenance of particle size after simple lyophilization [11]: also worked at the same weight ratio

Molecule: CDP-2′-glycine-docetaxel
- IC50 [17]: 1.2 to 3.7 nM

Molecule: CDP-Alanine Glycolate-Docetaxel
- IC50 [17]: 0.4 to 2 nM

Molecule: CDP-Gly-SN-38
- particle size [18]: 27.9 nm

Molecule: CDP-dithiolethyloxy-carbonate-docetaxel
- IC50 [17]: 23 nM

Molecule: CDP-hexanoate-docetaxel [CDP-hexanoate-docetaxel nanoparticles]
- IC50 [17]: 325 to 440 nM
